Assays:
[1] = molecular target: T1, human β2 adrenergic receptor (Homo sapiens, UniProt P07550); experiment: Radioligand binding assay for human β2 adrenergic receptor (Assay Test Procedure A)
T1 construct: expressed in transfected cells; membranes
Description: Chinese hamster ovarian (CHO) cell lines stably expressing cloned human β1, β2 or β3 adrenergic receptors, respectively, were grown to near confluency in Hams F-12 media with 10% FBS in the presence of 500 μg/mL Geneticin. The cell monolayer was lifted with 2 mM EDTA in PBS. Cells were pelleted by centrifugation at 1,000 rpm, and cell pellets were either stored frozen at −80° C. or membranes were prepared immediately for use. For preparation of β1 and β2 receptor expressing membranes, cell pellets were re-suspended in lysis buffer (10 mM HEPES/HCl, 10 mM EDTA, pH 7.4 at 4° C.) and homogenized using a tight-fitting Dounce glass homogenizer (30 strokes) on ice. […] The protein concentration of the membrane suspension was determined by the methods described in Lowry et al., 1951, Journal of Biological Chemistry, 193, 265; and Bradford, Analytical Biochemistry, 1976, 72, 248-54. […]
Binding assays were performed in 96-well microtiter plates in a total assay volume of 100 μL with 10-15 μg of membrane protein containing the human β1, β2 or β3 adrenergic receptors in assay buffer (75 mM Tris/HCl pH 7.4 at 25° C., 12.5 mM MgCl2, 1 mM EDTA, 0.2% BSA). […] Non-specific binding was determined in the presence of 10 μM propranolol. […] Filter plates were washed three times with filtration buffer (75 mM Tris/HCl pH 7.4 at 4° C., 12.5 mM MgCl2, 1 mM EDTA) to remove unbound radioactivity. […]

[2] = molecular target: T1, human β2 adrenergic receptor; experiment: Whole-cell cAMP Flashplate assay in CHO cell lines heterologously expressing human β2 adrenergic receptor (Assay Test Procedure C); type: cell-based
Description: cAMP assays were performed in a radioimmunoassay format using the Flashplate Adenylyl Cyclase Activation Assay System with [^125I]-cAMP (NEN SMP004, PerkinElmer Life Sciences Inc., Boston, Mass.), according to the manufacturers instructions. For the determination of […] receptor agonist potency (EC50), CHO-K1 cell lines stably expressing cloned human β1, β2 or β3 adrenergic receptors were grown to near confluency in HAM's F-12 media supplemented with 10% FBS and Geneticin (250 μg/mL). Cells were rinsed with PBS and detached in dPBS (Dulbecco's Phosphate Buffered Saline, without CaCl2 and MgCl2) containing 2 mM EDTA or Trypsin-EDTA solution (0.05% trypsin/0.53 mM EDTA). After counting cells in Coulter cell counter, cells were pelleted by centrifugation at 1,000 rpm and re-suspended in stimulation buffer containing IBMX (PerkinElmer Kit) pre-warmed to room temperature to a concentration of 1.6×10^6 to 2.8×10^6 cells/mL. About 60,000 to 80,000 cells per well were used in this assay. […] The amount of cAMP produced (pmol/well) was calculated based on the counts observed for the samples and cAMP standards as described in the manufacturer's user manual. Data were analyzed by nonlinear regression analysis with the GraphPad Prism Software package (GraphPad Software, Inc., San Diego, Calif.) with the sigmoidal equation. […]

T1 sequence (P07550 whole entry): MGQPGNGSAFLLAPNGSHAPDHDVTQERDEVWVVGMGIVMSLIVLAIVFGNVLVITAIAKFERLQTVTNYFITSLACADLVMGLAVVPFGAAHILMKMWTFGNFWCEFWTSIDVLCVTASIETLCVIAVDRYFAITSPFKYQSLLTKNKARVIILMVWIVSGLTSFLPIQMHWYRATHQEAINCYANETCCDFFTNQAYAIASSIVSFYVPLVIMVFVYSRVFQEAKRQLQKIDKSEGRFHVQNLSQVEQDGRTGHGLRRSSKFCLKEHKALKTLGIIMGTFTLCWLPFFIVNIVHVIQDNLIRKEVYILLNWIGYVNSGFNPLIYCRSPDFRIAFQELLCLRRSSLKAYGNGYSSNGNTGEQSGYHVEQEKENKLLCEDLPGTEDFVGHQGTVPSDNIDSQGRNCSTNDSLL

## C[N+]1(CCCCCCCCCNC[C@H](O)c2ccc(O)c3[nH]c(=O)ccc23)C2CC(OC(=O)C(O)(c3cccs3)c3cccs3)CC1C1OC12.C[N+]1(CCCCCCCCCNC[C@H](O)c2ccc(O)c3[nH]c(=O)ccc23)C2CC(OC(=O)C(O)(c3cccs3)c3cccs3)CC1C1OC12.O=C([O-])C(F)(F)F.O=C([O-])C(F)(F)F (stereo partly drawn) [Example 1, 7-(2-Hydroxy-2,2-dithiophen-2-ylacetoxy)-9-{9-[(R)-2-hydroxy-2-(8-hydroxy-2-oxo-1,2-dihydroquinolin-5-yl)ethylamino]nonyl}-9-methyl-3-oxa-9-azonia-tricyclo[3.3.1.0^2,4]nonane Ditrifluoroacetate]
[1]; radioligand displacement, CHO cell membranes, [3H]-dihydroalprenolol
  Ki: < 50 nM
[1]; receptor subtype selectivity, binding, β2 over β1
  ratio of Ki(β1)/Ki(β2): greater than 5
[2]; cAMP, CHO-K1 cells expressing cloned human β2 receptor
  EC50: < 10 nM
[2]; receptor subtype selectivity, functional, β2 over β1
  ratio of EC50(β1)/EC50(β2): greater than 10

From patent US7893256B2, “Azabicycloalkane compounds” (Theravance, Inc., priority 2003, dated 2011)
